The values that follow are results of earlier work, collected in patent publication US10821185B2, “Triglyceride otic formulations and uses thereof” (Otonomy, Inc., priority 2016, dated 2020).

Structures can show the parent of a compound that is named as a salt.

For one data set, the system named is V2-R. The conditions noted are these: infusion into the scala tympani.
The target of data set [1] is D136A mutant VP2 receptor (Homo sapiens, UniProt P30518, D136A).
For data set [2] the following is noted: after topical application.
Data set [3] relates to mouse collagen-induced arthritis model. The conditions noted are these: 30 mg/kg dose.
Data set [4] relates to LPS-induced human PBMC cells. The conditions noted are these: read-out: IC50 for inhibiting TNF-α production.
The test system of another data set is tinnitus. The conditions noted are these: administered by IV.
For data set [5], the system named is LPS-induced MonoMac-6 cells. The settings on record: read-out: IC50 for inhibiting TNF-α production.
The subject of another data set is TNF-α. The conditions noted are these: LPS-challenged mice.
The test system of the next data set is rat arthritis model. The conditions noted are these: 30 mg/kg.
The conditions of data set [6]: systemic administration.
The conditions of data set [7]: systemically treated.

Take `Cc1ccccc1C(=O)Nc1ccc(C(=O)N2CCCC(N(C)C)c3ccccc32)cc1` (racemic) [OPC-31260, (±)-5-dimethylamino-1-(4-[2-methylbenzoylamino]benzoyl)-2,3,4,5-tetrahydro-1H-benzazepin hydrochloride]: in the data set with V2-R, the “Meniere's disease symptoms” value was “marked reduction of Meniere's disease symptoms”. Moreover, in data set [1], the “behaviour at constitutively activated D136A mutant VP2 receptor” value was “inverse agonist”.
For `C=CC[C@@H]1/C=C(\C)C[C@H](C)C[C@H](OC)[C@H]2O[C@@](O)(C(=O)C(=O)N3CCCC[C@H]3C(=O)O[C@H](/C(C)=C/[C@@H]3CC[C@@H](O)[C@H](OC)C3)[C@H](C)[C@@H](O)CC1=O)[C@H](C)C[C@@H]2OC` (relative stereo) [tacrolimus, [3S-[3R*[E(1S*,3S*,4S*)], 4S*,5R*,8S*,9E,12R*,14R*,15S*,16R*,18S*,19S*,26aR*]]-5,6,8,11,12,13,14,15,16,17,18,19,24,25,26,26a-hexadecahydro-5,19-dihydroxy-3-[2-(4-hydroxy-3-methoxycyclohexyl)-1-methylethenyl]-14,16-dimethoxy-4,10,12,18-tetramethyl-8-(2-propenyl)-15,19-epoxy-3H-pyrido[2,1-39c][1,4]oxaazacyclotricosine-1,7,20,21(4H,23H)-tetrone monohydrate], in [2], the bioavailability entry was “less than 0.5%”.
Turning to `Cc1ccc2nc(NCCN)c3ncc(C)n3c2c1` [BMS-345541], the severity of disease result in data set [3] is “significantly reduced the severity of disease”.
Turning to `CC[C@H](C)[C@H](NC(=O)[C@H](CC(C)C)[C@H](C(C)C)N(O)C=O)C(=O)Nc1ccccn1` [GW3333], the 50% inhibitory concentration (IC50) – broadly, the midpoint of a concentration-inhibition curve – in data set [4] is 970 nM.
For `CCN(CC)CC(=O)Nc1c(C)cccc1C` [Lidocaine], in the data set on tinnitus, the “sufferers in whom the noise associated with tinnitus is reduced or eliminated” value was 60-80%.
`CC(C)C[C@@H](C(=O)N[C@@H](CCCN/C(N)=N/[N+](=O)[O-])C(=O)Nc1nccs1)[C@H](C(C)C)N(O)C=O` [Nitroarginine analog A]: in [5], the IC50 was 34 nM.
Turning to `O=C(Nc1cc(Cl)cc2c1[nH]c1cnccc12)c1cccnc1` [PS-1145], the “production of TNF-α” value in the data set on TNF-α was “reduces the production of TNF-α”.
For `COc1cccc2nc(-c3cccs3)nc(NN3C(=O)C=C(C)C3=O)c12` [SPC-839], the paw edema result with rat arthritis model is recorded as “reduces paw edema”.
As to `CCOc1ccc2c(c1)C1(CCC(OCCN3CCOCC3)CC1)C(=O)N2S(=O)(=O)c1ccc(C(=O)NC(C)(C)C)cc1OC` (stereo not drawn) [SR-1211463, 1-(4-(N-tert-butylcarbamoyl)-2-methoxybenzenesulfonyl)-5-ethoxy-3-spiro-(4-(2-morpholinoethoxy)cyclohexane)indol-2-one fumarate], the “behaviour at constitutively activated D136A mutant VP2 receptor” value in [1] was “inverse agonist”.
Regarding adalimumab, in data set [6], the “patients developing injection site reactions (erythema and/or itching, hemorrhage, pain and/or swelling)” value was 20%.
As to etanercept, the “patients experiencing injection site reactions” value in data set [7] is reported as “over one-third of patients”.
